# Assay results from publication PMC11671014 (PLOS Pathogens, 2024).
# Entries after “also recorded” stand apart in the source; their conditions may differ. Like-named read-outs stand apart in the source and are kept apart here.
# Legend:
# [1] = test system: P. falciparum liver stage schizont (NF175); experiment: Liver stage schizont assay in primary human hepatocytes (NF175); type: cell-based; conditions: Plasmodium falciparum, Hepatocyte, 96 h, four days
# Experimental: Activity against liver stage parasites was performed using a modification of published procedures. Briefly, cryopreserved human primary hepatocytes (NF175: H1500.H15B+ Lot No. HC0-6, TebuBio or NF135: F00995-P Lot No. IRZ, BioIVT) were thawed and seeded at 18,000 cells per well in collagen-coated 384-well microtiter plates in medium containing 10% heat inactivated fetal bovine serum (hiFBS). Cells were cultured at 37°C in 5% CO2. For NF175, medium was replaced by fresh medium containing 10% hiFBS, 5 h post plating. For NF135, medium was replaced by medium containing 0.2% BSA, 24 h post plating. 48 h post plating, salivary glands from Plasmodium-NF175 or NF135-infected Anopheles stephensi mosquitoes were dissected, added to the hepatocytes (10,000 per well/ NF175; or 12,500 per well/ NF135) and allowed to infect for 3 hours. Sporozoites were then aspirated, and compounds diluted in medium containing 10% hiFBS or 0.2% BSA, were added to the hepatocytes. Medium containing 10% hiFBS or 0.2% BSA and compounds was refreshed daily for four days. […] Cells were imaged on a PicoExpress high content imager, and images were analysed automatically using CellReporterXpress software. Data were analysed by logistic regression using a four-parameter (Hill equation) model and a least-squares method to find the best fit.
# [2] = test system: P. falciparum (Pf3D7^0087/N9); experiment: Therapeutic efficacy and tolerability in the SCID mouse P. falciparum model; type: in vivo, Plasmodium falciparum in NODscidIL2Rγ^null mice
# Experimental: The model using P. falciparum Pf3D7^0087/N9 in NODscidIL2Rγ^null mice engrafted with human RBCs was adapted from a previously described procedure. Female NODscidIL2Rγ^null mice were purchased from Charles River (Germany). Briefly, two engrafted mice/dosing group (females, 20–22 g) were infected intravenously with 2 x 10^7 P. falciparum (Pf3D7^0087/N9) on day 0. The antimalarial efficacy was assessed following administration (p.o.) of 100 or 200 mg/kg of compound or of 4 daily doses of 50 mg/kg, initiated on day 3 post-infection. The effect on blood parasitemia was measured by microscopic analysis of Giemsa-stained blood smears (on days 3, 4, 5, 6 and 7 post-infection). Mice were euthanized on day 7. Animal were monitored for symptoms of acute toxicity, including decreased activity, sunken flanks, ataxia and blood in faeces.
# [3] = molecular target: Atg7 (autophagy-related protein-7) (Homo sapiens, UniProt O95352); experiment: ATG7 E1-E2 transthiolation HTRF assay (GABARAP); type: biochemical; conditions: read-out: ATG7 IC50 HTRF RH-GABARAP
# Sequence of Atg7 (autophagy-related protein-7) (O95352 whole entry): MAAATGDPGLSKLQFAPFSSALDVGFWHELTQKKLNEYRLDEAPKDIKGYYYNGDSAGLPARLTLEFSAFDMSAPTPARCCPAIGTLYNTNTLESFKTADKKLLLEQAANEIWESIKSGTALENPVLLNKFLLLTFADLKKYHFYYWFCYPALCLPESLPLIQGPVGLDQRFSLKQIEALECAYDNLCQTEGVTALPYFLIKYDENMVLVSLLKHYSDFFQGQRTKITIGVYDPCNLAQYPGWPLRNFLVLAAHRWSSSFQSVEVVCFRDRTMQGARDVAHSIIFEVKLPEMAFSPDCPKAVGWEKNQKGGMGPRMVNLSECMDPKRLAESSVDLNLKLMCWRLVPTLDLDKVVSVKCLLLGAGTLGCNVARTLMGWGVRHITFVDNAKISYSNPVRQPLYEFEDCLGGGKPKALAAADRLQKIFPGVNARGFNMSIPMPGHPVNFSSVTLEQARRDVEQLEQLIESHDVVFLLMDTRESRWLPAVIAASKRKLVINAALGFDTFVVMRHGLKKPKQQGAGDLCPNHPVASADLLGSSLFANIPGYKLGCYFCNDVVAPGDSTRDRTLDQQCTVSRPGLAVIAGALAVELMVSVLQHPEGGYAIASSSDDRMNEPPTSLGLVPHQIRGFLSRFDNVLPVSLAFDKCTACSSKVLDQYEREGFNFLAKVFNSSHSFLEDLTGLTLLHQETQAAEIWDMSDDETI
# Text: An Homogeneous Time-Resolved Fluorescence (HTRF) enzyme assay was employed to evaluate compound activity against ATG7 as previously described. In this assay, a Flag-tagged ATG8 homolog (GABA type A receptor-associated protein; GABARAP) is activated by ATG7 and then transthiolated to a GST-tagged E2 (ATG3). The product of the enzyme reaction, Flag-GABARAP-ATG3-GST, is quantified by measuring FRET between Europium-Cryptate labelled monoclonal anti-Flag M2 (FLAG M2-Eu cryptate; Revvity, Cat# 61FG2KLB) and […] (Anti-GST IgG conjugated to SureLight-Allophycocyanin) (Revvity, Cat# AD0059G)). The activation and transthiolation of ubiquitin by UAE, activation and transthiolation of NEDD8 by NAE and activation and transthiolation of SUMO by SAE were all assayed in a similar fashion with appropriately tagged ubiquitin-like proteins and E2 conjugating enzymes as described.
# Rat pharmacokinetics = type: in vivo, Sprague-Dawley rats; conditions: for half-life: read-out: T1/2z (converted)
# Experimental: Sprague-Dawley rats (11 weeks old) were sourced from Hilltop Lab Animals, Inc (Scottdale, Pennsylvania, USA). […] Blood was collected from a jugular cannula at 0.083, 0.25, 0.5, 1, 2, 4, 8 and 24 h post i.v. dosing, and at the same times (except the 0.083-h sample) following oral administration. A portion of the blood samples were processed into plasma. Samples were precipitated with 0.5% formic acid in methanol and the supernatants were analysed by positive ion electrospray LC-MS for the administered compound. Non-compartmental pharmacokinetic parameters were calculated from individual concentration vs time profiles using Phoenix 64 WinNonlin (Version 8.1 Certara, Princeton NJ).
# [4] = test system: P. falciparum liver stage schizont (NF175); design: method as in ref [1] Xie et al., Science 2022; conditions: ref [1] Xie et al., Science 2022; cited from earlier work
# [5] = male, Sprague-Dawley, IV 1 mg/kg, plasma
# [6] = male, Sprague-Dawley, PO 1 mg/kg, plasma
# [7] = male, Sprague-Dawley, PO 10 mg/kg, plasma
# [8] = male, Sprague-Dawley, PO 25 mg/kg, plasma
# [9] = male, Sprague-Dawley, whole blood, IV 1 mg/kg, blood
# [10] = male, Sprague-Dawley, whole blood, PO 1 mg/kg, blood
# [11] = male, Sprague-Dawley, whole blood, PO 10 mg/kg, blood
# [12] = male, Sprague-Dawley, whole blood, PO 25 mg/kg, blood
smiles,measurement,setting,value
"CC(C)c1nn([C@@H]2O[C@H](COS(N)(=O)=O)[C@@H](O)[C@H]2O)c2ncnc(N)c12 [ML471, ((2R,3S,4R,5R)-5-(4-amino-3-isopropyl-1H-pyrazolo[3,4-d]pyrimidin-1-yl)-3,4-dihydroxytetrahydrofuran-2-yl)methyl sulfamate]",IC50,[1],0.0028 µM
same,"effect on 3D7 parasitemia, 4 x daily doses",[2]; 4 x daily doses of 50 mg/kg p.o. from day 3 post-infection,reduced the 3D7 parasitemia to baseline
same,tolerability / toxicity in SCID mice (in words),"[2]; 100 or 200 mg/kg p.o. single dose, 4 x 50 mg/kg p.o.",well tolerated; also recorded: no evidence of toxicity
same,"effect on 3D7 parasitemia, single dose regimen",[2]; either 100 or 200 mg/kg p.o. on day 3 post-infection,reduction of 3D7 parasitemia to baseline
same,IC50,[3],0.022 ± 0.009 µM
same,dose recovered in 0–24 h urine as parent,Rat pharmacokinetics; 0–24 h urine,9–38 % of the dose
same,area under the curve,"Rat pharmacokinetics; 25 mg/kg p.o., blood",30 µM·h
same,blood clearance as share of liver blood flow,Rat pharmacokinetics; IV dose of 1 mg/kg,~ 4 % of liver blood flow
same,Cmax,Rat pharmacokinetics; [5],1.54 µM
same,Tmax,Rat pharmacokinetics; [5],0.08 h
same,clearance,Rat pharmacokinetics; [5],3.84 L/h/kg
same,half-life,Rat pharmacokinetics; [5],2.22 h
same,Cmax,Rat pharmacokinetics; [6],0.0191 µM
same,Tmax,Rat pharmacokinetics; [6],0.5 h
same,bioavailability,"Rat pharmacokinetics; male, Sprague-Dawley, PO 1 mg/kg, plasma, read-out: %F",27.7%
same,half-life,Rat pharmacokinetics; [6],8.78 h
same,Cmax,Rat pharmacokinetics; [7],0.196 µM
same,Tmax,Rat pharmacokinetics; [7],0.38 h
same,bioavailability,"Rat pharmacokinetics; male, Sprague-Dawley, PO 10 mg/kg, plasma, read-out: %F",25.2%
same,half-life,Rat pharmacokinetics; [7],9.15 h
same,Cmax,Rat pharmacokinetics; [8],0.393 µM
same,Tmax,Rat pharmacokinetics; [8],0.75 h
same,bioavailability,"Rat pharmacokinetics; male, Sprague-Dawley, PO 25 mg/kg, plasma, read-out: %F",16.4%
same,half-life,Rat pharmacokinetics; [8],3.57 h
same,Vd,"Rat pharmacokinetics; male, Sprague-Dawley, plasma, iv, 1 mg/kg, IV 1 mg/kg, plasma, read-out: Vss",2.79 L/kg
same,Vd,"Rat pharmacokinetics; male, Sprague-Dawley, plasma, iv, 1 mg/kg, IV 1 mg/kg, plasma, read-out: Vz",12.3 L/kg
same,blood plasma ratio at 0.083 h,"Rat pharmacokinetics; male, Sprague-Dawley, whole blood and plasma, intravenous, 1 mg/kg, time 0.083 h",0.8
same,blood plasma ratio at 0.25 h,"Rat pharmacokinetics; male, Sprague-Dawley, whole blood and plasma, intravenous, 1 mg/kg, time 0.25 h",1.5
same,blood plasma ratio at 0.5 h,"Rat pharmacokinetics; male, Sprague-Dawley, whole blood and plasma, intravenous, 1 mg/kg, time 0.5 h",2.1
same,blood plasma ratio at 1 h,"Rat pharmacokinetics; male, Sprague-Dawley, whole blood and plasma, intravenous, 1 mg/kg, time 1 h",5.5
same,blood plasma ratio at 2 h,"Rat pharmacokinetics; male, Sprague-Dawley, whole blood and plasma, intravenous, 1 mg/kg, time 2 h",17.8
same,blood plasma ratio at 4 h,"Rat pharmacokinetics; male, Sprague-Dawley, whole blood and plasma, intravenous, 1 mg/kg, time 4 h",48.9
same,blood plasma ratio at 8 h,"Rat pharmacokinetics; male, Sprague-Dawley, whole blood and plasma, intravenous, 1 mg/kg, time 8 h",114
same,blood plasma ratio,"Rat pharmacokinetics; male, Sprague-Dawley, whole blood and plasma, iv, 1 mg/kg, i.v. PK study, read-out: blood to plasma ratio at the initial sampling times",~1
same,Cmax,Rat pharmacokinetics; [9],1.18 µM
same,Tmax,Rat pharmacokinetics; [9],0.17 h
same,clearance,Rat pharmacokinetics; [9],0.138 L/h/kg
same,half-life,Rat pharmacokinetics; [9],36.6 h
same,Cmax,Rat pharmacokinetics; [10],0.0393 µM
same,Tmax,Rat pharmacokinetics; [10],16 h
same,bioavailability,"Rat pharmacokinetics; male, Sprague-Dawley, whole blood, PO 1 mg/kg, blood, read-out: %F",9.29%
same,half-life,Rat pharmacokinetics; [10],23.2 h
same,Cmax,Rat pharmacokinetics; [11],0.261 µM
same,Tmax,Rat pharmacokinetics; [11],6 h
same,bioavailability,"Rat pharmacokinetics; male, Sprague-Dawley, whole blood, PO 10 mg/kg, blood, read-out: %F",9.56%
same,half-life,Rat pharmacokinetics; [11],29.5 h
same,Cmax,Rat pharmacokinetics; [12],0.669 µM
same,Tmax,Rat pharmacokinetics; [12],8 h
same,bioavailability,"Rat pharmacokinetics; male, Sprague-Dawley, whole blood, PO 25 mg/kg, blood, read-out: %F",8.72%
same,half-life,"Rat pharmacokinetics; male, Sprague-Dawley, whole blood, PO 25 mg/kg, blood, terminal half-life, T1/2∞",30.5 h
same,Vd,"Rat pharmacokinetics; male, Sprague-Dawley, whole blood, iv, 1 mg/kg, IV 1 mg/kg, blood, read-out: Vss",6.25 L/kg
same,Vd,"Rat pharmacokinetics; male, Sprague-Dawley, whole blood, iv, 1 mg/kg, IV 1 mg/kg, blood, read-out: Vz",6.54 L/kg
same,bioavailability,"Rat pharmacokinetics; male, Sprague-Dawley, whole blood, oral, blood, range over doses, read-out: %F (blood), rat oral bioavailability",8.72 to 9.56%
Nc1ncnc2c1c(OC(F)F)nn2[C@@H]1O[C@H](COS(N)(=O)=O)[C@@H](O)[C@H]1O [ML901],IC50,[4],0.013 ± 0.005 µM
